Data reported in patent US20250163054A1, “SUBSTITUTED BICYCLIC HETEROARYL COMPOUNDS USEFUL AS INHIBITORS OF TLR9” (Bristol-Myers Squibb Company, priority 2022, published 2025).

How the values were obtained:
Assay type in all cases: cell-based
[1] = target: T1, human TLR9 (Homo sapiens, UniProt Q9NR96); assay: TLR7/8/9 Inhibition Reporter Assays (TLR9); settings: HEK-Blue cells overexpressing human TLR9, SEAP reporter, stimulated with TLR9 ligand ODN2006
T1 construct: host or cells: HEK-Blue cells (HEK293-derived reporter line)
T1 sequence (Q9NR96 26-1032): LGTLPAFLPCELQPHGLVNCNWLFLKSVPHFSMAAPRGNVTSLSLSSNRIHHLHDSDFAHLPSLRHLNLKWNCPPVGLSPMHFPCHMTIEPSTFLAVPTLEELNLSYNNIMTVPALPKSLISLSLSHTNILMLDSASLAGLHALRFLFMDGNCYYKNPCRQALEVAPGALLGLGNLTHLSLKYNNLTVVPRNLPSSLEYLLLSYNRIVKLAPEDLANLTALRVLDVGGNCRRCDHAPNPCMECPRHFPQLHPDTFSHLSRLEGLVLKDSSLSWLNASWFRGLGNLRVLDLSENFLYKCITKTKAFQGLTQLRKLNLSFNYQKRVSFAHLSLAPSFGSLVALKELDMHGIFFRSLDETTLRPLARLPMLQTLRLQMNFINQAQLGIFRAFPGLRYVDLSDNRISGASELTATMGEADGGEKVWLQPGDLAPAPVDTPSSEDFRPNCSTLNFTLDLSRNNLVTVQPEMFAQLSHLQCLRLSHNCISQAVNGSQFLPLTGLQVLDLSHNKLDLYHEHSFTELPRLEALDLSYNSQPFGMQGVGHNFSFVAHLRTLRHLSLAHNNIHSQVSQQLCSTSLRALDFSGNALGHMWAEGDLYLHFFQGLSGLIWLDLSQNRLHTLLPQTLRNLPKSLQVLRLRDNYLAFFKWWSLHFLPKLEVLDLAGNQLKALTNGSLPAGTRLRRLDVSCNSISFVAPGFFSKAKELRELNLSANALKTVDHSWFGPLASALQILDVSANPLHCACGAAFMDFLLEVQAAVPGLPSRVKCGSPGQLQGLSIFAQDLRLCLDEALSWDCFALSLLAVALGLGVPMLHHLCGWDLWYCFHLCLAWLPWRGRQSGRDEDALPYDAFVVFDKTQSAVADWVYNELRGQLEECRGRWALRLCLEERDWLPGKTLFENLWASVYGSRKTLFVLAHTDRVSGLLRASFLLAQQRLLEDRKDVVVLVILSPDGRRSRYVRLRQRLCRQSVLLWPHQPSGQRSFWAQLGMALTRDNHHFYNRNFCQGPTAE
Experimental: (§1) HEK-Blue™-cells (Invivogen) overexpressing human TLR7, TLR8 or TLR9 receptors were used for screening inhibitors of these receptors using an inducible SEAP (secreted embryonic alkaline phosphatase) reporter gene under the control of the IFN-β minimal promoter fused to five NF-κB and AP-1-binding sites. Cells are seeded into Greiner 384 well plates (15000 cells per well) that are predispensed (by ECHO) with testing compounds in DMSO to yield a final dose response concentration range of 0.85 nM-[…]. After a 60 minute compound pre-treatment in 37° C. incubator, the cells are then stimulated with a TLR7 ligand (gardiquimod at a final concentration of […]), TLR8 ligand (R848 at a final concentration of […]) or TLR9 ligand (ODN2006 at a final concentration of 200 nM) to activate NF-κB and AP-1 which induce the production of SEAP. After a 22 hour incubation at 37° C., 5% CO2, SEAP levels are determined with the addition of HEK-Blue™ Detection reagent (Invivogen), a cell culture medium that allows for detection of SEAP, according to manufacturer's specifications. The percent inhibition is determined as the % reduction in the HEK-Blue signal present in wells treated with agonist plus DMSO alone compared to wells treated with a known inhibitor.

[2] = target: T2, human TLR7 (Homo sapiens, UniProt Q9NYK1); assay: TLR7/8/9 Inhibition Reporter Assays (TLR7); settings: HEK-Blue cells overexpressing human TLR7, SEAP reporter, stimulated with TLR7 ligand gardiquimod
T2 construct: host or cells: HEK-Blue cells (HEK293-derived reporter line)
T2 sequence (Q9NYK1 27-1049): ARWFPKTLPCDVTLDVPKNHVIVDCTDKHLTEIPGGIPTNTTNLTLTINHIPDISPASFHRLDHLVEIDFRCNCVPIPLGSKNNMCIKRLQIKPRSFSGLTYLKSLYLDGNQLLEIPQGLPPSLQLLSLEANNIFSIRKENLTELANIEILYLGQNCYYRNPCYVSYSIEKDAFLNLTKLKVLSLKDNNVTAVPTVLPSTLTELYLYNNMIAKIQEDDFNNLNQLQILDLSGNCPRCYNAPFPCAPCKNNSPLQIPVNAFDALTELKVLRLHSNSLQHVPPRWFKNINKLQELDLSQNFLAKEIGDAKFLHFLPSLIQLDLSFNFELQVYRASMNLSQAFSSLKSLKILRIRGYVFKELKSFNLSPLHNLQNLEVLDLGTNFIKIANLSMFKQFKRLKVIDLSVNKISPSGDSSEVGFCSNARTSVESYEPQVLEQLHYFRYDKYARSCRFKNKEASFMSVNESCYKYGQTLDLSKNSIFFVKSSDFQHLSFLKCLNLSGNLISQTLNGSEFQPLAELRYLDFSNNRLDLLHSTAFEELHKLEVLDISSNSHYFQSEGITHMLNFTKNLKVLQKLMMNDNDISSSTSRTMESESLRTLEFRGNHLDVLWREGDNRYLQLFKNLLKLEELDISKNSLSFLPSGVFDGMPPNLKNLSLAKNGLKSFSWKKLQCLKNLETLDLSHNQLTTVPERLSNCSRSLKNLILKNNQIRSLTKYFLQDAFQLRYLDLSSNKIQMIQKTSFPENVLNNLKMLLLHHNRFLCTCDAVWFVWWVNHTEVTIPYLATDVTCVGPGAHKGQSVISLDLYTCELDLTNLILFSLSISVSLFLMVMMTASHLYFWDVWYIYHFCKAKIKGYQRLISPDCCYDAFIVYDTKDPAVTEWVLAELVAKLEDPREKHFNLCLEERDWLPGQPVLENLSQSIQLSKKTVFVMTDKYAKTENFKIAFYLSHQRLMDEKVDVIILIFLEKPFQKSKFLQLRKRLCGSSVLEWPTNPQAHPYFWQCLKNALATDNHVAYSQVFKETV
Experimental: as §1

[3] = target: T3, human TLR8 (Homo sapiens, UniProt Q9NR97); assay: TLR7/8/9 Inhibition Reporter Assays (TLR8); settings: HEK-Blue cells overexpressing human TLR8, SEAP reporter, stimulated with TLR8 ligand R848
T3 construct: host or cells: HEK-Blue cells (HEK293-derived reporter line)
T3 sequence (Q9NR97 27-1041): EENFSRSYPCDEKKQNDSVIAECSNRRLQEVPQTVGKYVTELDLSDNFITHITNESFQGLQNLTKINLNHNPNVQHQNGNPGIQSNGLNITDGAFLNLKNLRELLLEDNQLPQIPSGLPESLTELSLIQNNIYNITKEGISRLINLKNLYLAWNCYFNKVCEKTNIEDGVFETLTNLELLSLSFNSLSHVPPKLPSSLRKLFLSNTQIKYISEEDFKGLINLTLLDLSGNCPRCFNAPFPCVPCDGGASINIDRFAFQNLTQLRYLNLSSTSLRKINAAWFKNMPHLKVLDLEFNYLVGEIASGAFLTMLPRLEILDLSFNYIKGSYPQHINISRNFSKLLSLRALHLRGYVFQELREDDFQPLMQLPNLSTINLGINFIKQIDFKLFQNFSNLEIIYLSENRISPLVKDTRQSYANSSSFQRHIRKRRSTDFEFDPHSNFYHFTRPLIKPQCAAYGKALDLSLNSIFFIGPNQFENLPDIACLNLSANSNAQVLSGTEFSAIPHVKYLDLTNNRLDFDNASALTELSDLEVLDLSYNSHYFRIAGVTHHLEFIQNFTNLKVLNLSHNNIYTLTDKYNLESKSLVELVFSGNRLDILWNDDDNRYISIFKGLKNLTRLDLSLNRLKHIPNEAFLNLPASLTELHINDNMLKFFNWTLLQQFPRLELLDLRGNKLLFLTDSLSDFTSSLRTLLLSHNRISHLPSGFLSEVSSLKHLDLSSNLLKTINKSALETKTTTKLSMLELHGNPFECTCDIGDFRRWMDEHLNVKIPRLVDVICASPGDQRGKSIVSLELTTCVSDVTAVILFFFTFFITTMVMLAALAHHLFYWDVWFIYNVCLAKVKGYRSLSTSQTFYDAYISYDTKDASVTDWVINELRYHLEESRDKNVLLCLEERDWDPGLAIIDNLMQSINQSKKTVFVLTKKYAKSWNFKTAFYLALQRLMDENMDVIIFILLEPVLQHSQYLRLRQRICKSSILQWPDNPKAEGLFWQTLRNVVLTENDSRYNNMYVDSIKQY
Experimental: as §1

IC50 [1]	IC50 [2]	IC50 [3]	Compound
0.23 µM	5.3 µM	0.44 µM	CC(C)N1CCN(c2ccc(-c3cc4c(cn3)nc(-c3ccc(S(C)(=O)=O)cc3)n4C)cc2)CC1 [Example 70, 6-(4-(4-isopropylpiperazin-1-yl)phenyl)-1-methyl-2-(4-(methylsulfonyl)phenyl)-1H-imidazo[4,5-c]pyridine]
0.037 µM	2.8 µM	5.4 µM	Cc1nc(-c2ccc(N3C[C@@H]4CN(C5CCC5)C[C@@H]4C3)cc2)cc2c1nc(-c1ccc(S(C)(=O)=O)cc1)n2C [Example 69, 6-(4-((3aR,6aS)-5-cyclobutylhexahydropyrrolo[3,4-c]pyrrol-2(1H)-yl)phenyl)-1,4-dimethyl-2-(4-(methylsulfonyl)phenyl)-1H-imidazo[4,5-c]pyridine]
0.11 µM	0.89 µM	3.9 µM	Cc1nc(-c2ccc(N3CCC4(CC3)CN(CC(C)C)C4)cc2)cc2c1nc(-c1ccc(S(C)(=O)=O)cc1)n2C [Example 73, 6-(4-(2-isobutyl-2,7-diazaspiro[3.5]nonan-7-yl)phenyl)-1,4-dimethyl-2-(4-(methylsulfonyl)phenyl)-1H-imidazo[4,5-c]pyridine]
0.25 µM	5.1 µM	1.2 µM	CC(C)N1CC2(CCN(c3ccc(-c4cc5c(cn4)nc(-c4ccc(S(C)(=O)=O)cc4)n5C4CC4)cc3)CC2)C1 [Example 62, 1-cyclopropyl-6-(4-(2-isopropyl-2,7-diazaspiro[3.5]nonan-7-yl)phenyl)-2-(4-(methylsulfonyl)phenyl)-1H-imidazo[4,5-c]pyridine]
0.023 µM	1.8 µM	3.6 µM	COc1ccc(-c2nc3c(C)nc(-c4ccc(N5CC6(C5)CN(C(C)C)C6)cc4)cc3n2C)cc1OC [Example 76, 2-(3,4-dimethoxyphenyl)-6-(4-(6-isopropyl-2,6-diazaspiro[3.3]heptan-2-yl)phenyl)-1,4-dimethyl-1H-imidazo[4,5-c]pyridine]

The remaining lines, values behind:

Compound	IC50 [1]	IC50 [2]	IC50 [3]
COc1ccc(-c2nc3c(C)nc(-c4ccc(N5CCN(C6CCC6)CC5)cc4)cc3n2C)cc1OC [Example 19, 6-(4-(4-cyclobutylpiperazin-1-yl)phenyl)-2-(3,4-dimethoxyphenyl)-1,4-dimethyl-1H-imidazo[4,5-c]pyridine]	0.82 µM	0.85 µM	> 50 µM
Cc1nc(-c2ccc(N3CCN(C4CCC4)CC3)cc2)cc2c1nc(-c1ccc(S(C)(=O)=O)cc1)n2C [Example 21, 6-(4-(4-cyclobutylpiperazin-1-yl)phenyl)-1,4-dimethyl-2-(4-(methylsulfonyl)phenyl)-1H-imidazo[4,5-c]pyridine]	0.45 µM	3 µM	3.3 µM
Cc1nc(-c2ccc(C3CCN(C(C)C)CC3)cc2)cc2c1nc(-c1ccc(S(C)(=O)=O)cc1)n2C [Example 2, 6-(4-(1-isopropylpiperidin-4-yl)phenyl)-1,4-dimethyl-2-(4-(methylsulfonyl)phenyl)-1H-imidazo[4,5-c]pyridine]	0.3 µM	12 µM	36 µM
CS(=O)(=O)c1ccc(-c2nc3cnc(-c4ccc(N5CCN(CCCN6CCOCC6)CC5)cc4)cc3n2C2CC2)cc1 [Example 55, 4-(3-(4-(4-(1-cyclopropyl-2-(4-(methylsulfonyl)phenyl)-1H-imidazo[4,5-c]pyridin-6-yl)phenyl)piperazin-1-yl)propyl) morpholine]	0.099 µM	2.4 µM	0.64 µM
Cc1nc(-c2ccc(N3CCC(N4CCCC4)CC3)cc2F)cc2c1nc(-c1ccc(S(C)(=O)=O)cc1)n2C [Example 43, 6-(2-fluoro-4-(4-(pyrrolidin-1-yl)piperidin-1-yl)phenyl)-1,4-dimethyl-2-(4-(methylsulfonyl)phenyl)-1H-imidazo[4,5-c]pyridine]	0.29 µM	3.9 µM	2.3 µM
Cc1nc(-c2ccc(N3CCC(N(C)C)CC3)cc2)cc2c1nc(-c1ccc(S(C)(=O)=O)cc1)n2C [Example 4, 1-(4-(1,4-dimethyl-2-(4-(methylsulfonyl)phenyl)-1H-imidazo[4,5-c]pyridin-6-yl)phenyl)-N,N-dimethylpiperidin-4-amine]	0.12 µM	1.3 µM	9.2 µM
